Experimental data: patent US9861703B2 (Jinan Platinum Pharmatech Co. Ltd., priority 2013, dated 2018)

What was measured:
[1] = system: clear-cell ovarian carcinoma cell line ES-2; experiment: MTT proliferation inhibition, ES-2; assay type: cell-based; conditions: for EC50: 48 h
Description: (§1) Human leukemia cell line K562, clear-cell ovarian carcinoma cell line ES-2, human prostate cancer cell line PC-3, human breast cancer cell line MCF-7, cell line Hela, human liver cancer cell line H7402 and human ovarian cancer cell line 3-AO were transferred into a culture flask and were cultured in a medium at 37° C. in a 5% CO2 and saturation humidity. One bottle of cells in logarithmic growth phase was picked out and was blew and beaten to be uniform with a pipette, then took some cell suspension solution to prepare blood counting plate smear to count cells under inverted microscope, and then adjusted the cell number to be 1×10^5/mL by adding some culture medium. Cells were seeded on a 96-well plate on which also drug tests performed. Blank control group, negative control group, positive control group and drug test group were established on the plate while the surrounding wells of the plate were not used (but filled with sterile PBS), wherein the blank control groups were prepared by addition of culture medium 150 μL per well, the negative control groups were prepared by addition of cell suspension solution 100 μL per well and culture medium 50 μL per well, the positive control groups were prepared by addition of cell suspension solution 100 μL per well and positive control drug solution 50 μL per well, the drug test groups were prepared by addition of cell suspension solution 100 μL per well and test compound solution 50 μL per well, and there were 5 different concentrations of drug in the positive control group and the drug test group respectively: 0.01, 0.1, 1, 10, 100 μmol·L^−1, each concentration was established with 3 parallel wells. After the drug was added, the 96-well plate was incubated for 48 h at 37° C. in a CO2 incubator of 5% CO2 and saturation humidity. Upon completion of the incubation, 20 μL MTT solution (concentration was 5 mg/mL) was added to each well and incubated for an additional 4 h, and after the 96-well plate was centrifuged at 2000 rpm for 30 min, medium of each well was suck out carefully and removed and 100 μL DMSO was added instead, followed by vibrating on a tablet shaker for 15 min to re-dissolve formazan crystals completely. OD value of each well was measured at 570 nm wavelength using an enzyme-linked immunosorbent assay reader to calculate cellular proliferation inhibitory ratio of each drug in different concentrations. And half-inhibitory concentration (IC50) was calculated using statistical software SPSS 16.0, wherein the cellular proliferation inhibitory ratio can be calculated as following equation: […]

[2] = system: human prostate cancer cell line PC-3; experiment: MTT proliferation inhibition, PC-3; assay type: cell-based; conditions: 48 h
Description: as §1

[3] = system: human liver cancer cell line H7402; experiment: MTT proliferation inhibition, H7402; assay type: cell-based; conditions: 48 h
Description: as §1

[4] = system: 7 cell lines (ES-2, K562, PC-3, MCF-7, Hela, H7402, 3-AO); experiment: MTT proliferation inhibition, all 7 tumor cell lines (summary in words); assay type: cell-based
Description: as §1

[5] = system: liver cancer H22; experiment: Inhibition assay of intravenous administration against liver cancer H22 (Example 33); conditions: tail intravenous injection; for Number of mice alive: 7 mice per group, two cycles; for Tumor weight / inhibitory ratio (%): sacrificed after 13 days
Description: Extracted the ascites from H22 ascites tumour bearing mice, washed the ascites with sterile PBS for three times and then resuspended the cells with sterile PBS (cells counts: 3.75×10^7 cells/mL), inoculated it into right oxter of Kunming mice 100 uL per mouse.
The H22 tumor-bearing mice were randomized to 4 groups (7 mice per group) after being weighted. […] The size of tumor was measured by using a vernier calliper and weight of mouse by using an electronic balance at the beginning and ending of every cycle, then calculated their mean value. The mice were sacrificed after 13 days and the tumors were taken out and weighted. Tumor volume and inhibitory ratio were calculated as the following equation (L and W referred to length and width of tumor respectively): […]

[6] = system: H22 tumor cells; experiment: Activities of compounds in H22 tumor cells bearing Kunming mice models (Example 34); conditions: for anti-tumor growth activity: FIGS. 11-14; for Number of mice alive: 8 mice; for Tumor growth inhibition (%) / Tumor weight: after two cycles
Description: The ascites was extracted from H22 tumour bearing mice with well growth, followed by adding sterile PBS to dilute the ascites to a concentration of 8.5×10^7 cells/mL. 100 uL of the cells solution was suck up by a 1 mL sterile injector to inoculate into right oxter of mice. After 3 days, the mice were weighted and randomized to several groups (almost 8 mice per group, and a bit more in control group). These mice were administrated a predetermined dosage by intravenous or oral gavage with two days off when having administrated for 5 days until two cycles one of which had 7 days. The body weight of mouse was recorded at the beginning and ending of every cycle,
After being administrated for two cycles, the mice were weighted and recorded, then sacrificed by cervical dislocation to get lung, liver and spleen weighted respectively.
Overall difference was calculated by the function of one-way analysis of variance (One-Way ANOVA) in Origin 7.5 software; and t-test was used for pair-comparison between drug administrated group and blank group, and the inhibitory ratio of drug in each group was calculated based on the following equation: inhibitory ratio (100%)=(mean tumor weight of control group−mean tumor weight of drug administrated group)/mean tumor weight of control group×100.

[7] = intravenous injection, 50 mg/kg/d (0.1 mmol/kg/d)
[8] = oral gavage, 120 mg/kg/d ([…]) per dosage table, group printed *BC-01(50)
[9] = intravenous injection, 55 mg/kg/d (0.1 mmol/kg/d) (by order of dosage table)
[10] = intravenous injection, 79 mg/kg/d (0.15 mmol/kg/d) (by order of dosage table)
[11] = oral gavage, 130 mg/kg/d ([…]) per dosage table, group printed *BC-02(70)

`CC(C)C[C@H](NC(=O)[C@@H](O)[C@H](N)Cc1ccccc1)C(=O)OCn1cc(F)c(=O)[nH]c1=O.Cl` [BC-01, (S)-(5-fluoro-2,4-dioxo-3,4-dihydropyrimidinyl-1(2H))methyl-2-((2S,3R)-3-(amino)-2-hydroxy-4-phenylbutyryl)-4-methylpentanoate hydrochloride] was tested, and the EC50 [1] was 2.53 µM, the EC50 [2] was 10.7 µM and the EC50 [3] was 1.86 µM. The “anti-proliferation effect against all the tumor cells” value [4] was “obvious anti-proliferation effect”, the “Number of mice alive” value ([5]; 50 mg/kg/d) was 7 and the “Body weight(g) Beginning” value ([5]; 50 mg/kg/d) was 30.32 ± 1.57 g. For the same compound, the “Body weight(g) Ending” value ([5]; 50 mg/kg/d) was 31.53 ± 4.71 g, the “Tumor weight” value ([5]; 50 mg/kg/d) was 0.58 ± 0.12 g and the “inhibitory ratio (%)” value ([5]; 50 mg/kg/d) was 57.66%. For the same compound, the “Number of mice alive” value ([5]; 70 mg/kg/d) was 7, the “Body weight(g) Beginning” value ([5]; 70 mg/kg/d) was 30.00 ± 1.15 g and the “Body weight(g) Ending” value ([5]; 70 mg/kg/d) was 31.05 ± 1.78 g. For the same compound, the “Tumor weight” value ([5]; 70 mg/kg/d) was 0.37 ± 0.08 g, the “inhibitory ratio (%)” value ([5]; 70 mg/kg/d) was 73.00% and the “anti-tumor growth activity” value [6] was “excellent anti-tumor growth activity”. For the same compound, the “Number of mice alive” value ([6]; intravenous injection, 50 mg/kg/d (0.1 mmol/kg/d), two cycles) was 8, the “Tumor growth inhibition (%)” value [6, 7] was 84.38% and the “Tumor weight” value [6, 7] was 0.09 ± 0.14 g. For the same compound, the “Body weight(g) Beginning” value [6, 7] was 31.52 ± 3.63 g, the “Body weight(g) Ending” value [6, 7] was 31.78 ± 5.76 g and the “Number of mice alive” value [6, 8] was 7. The “Tumor growth inhibition (%)” value [6, 8] was 79.52%, the “Tumor weight” value [6, 8] was 0.12 ± 0.16 g and the “Body weight(g) Beginning” value [6, 8] was 27.87 ± 2.55 g. The “Body weight(g) Ending” value [6, 8] was 29.50 ± 2.15 g.
`CC(C)C[C@H](NC(=O)[C@@H](O)[C@H](N)Cc1ccccc1)C(=O)NCC(=O)OCn1cc(F)c(=O)[nH]c1=O.Cl` [BC-02, (5-fluoro-2,4-dioxo-3,4-dihydropyrimidinyl-1(2H))methyl-2-((S)-2-((2S,3R)-3-amino-2-hydroxy-4-phenylbutanamido)-4-methylpentanamido)acetate hydrochloride] was tested, and the “proliferation inhibition activity against ES-2” value [1] was “great proliferation inhibition activity”, the EC50 [1] was 1.34 µM and the EC50 [2] was 3.45 µM. The EC50 [3] was 11 µM, the “anti-proliferation effect against all the tumor cells” value [4] was “obvious anti-proliferation effect” and the “Number of mice alive” value ([5]; 70 mg/kg/d) was 7. The “Body weight(g) Beginning” value ([5]; 70 mg/kg/d) was 31.81 ± 4.99 g, the “Body weight(g) Ending” value ([5]; 70 mg/kg/d) was 32.83 ± 4.64 g and the “Tumor weight” value ([5]; 70 mg/kg/d) was 0.63 ± 0.01 g. For the same compound, the “inhibitory ratio (%)” value ([5]; 70 mg/kg/d) was 54.31%, the “tumor appearance until the end of the experiment” value ([6]; 0.15 mmol/kg/d, intravenous) was “no tumor appeared” and the “anti-tumor growth activity” value [6] was “excellent anti-tumor growth activity”. The “Number of mice alive” value [6, 9] was 7, the “Tumor growth inhibition (%)” value [6, 9] was 89.52% and the “Tumor weight” value [6, 9] was 0.06 ± 0.11 g. For the same compound, the “Body weight(g) Beginning” value [6, 9] was 25.67 ± 2.62 g, the “Body weight(g) Ending” value [6, 9] was 28.35 ± 3.71 g and the “Number of mice alive” value [6, 10] was 7. The “Tumor growth inhibition (%)” value [6, 10] was 100%, the “Tumor weight” value [6, 10] was 0.0 ± 0.0 g and the “Body weight(g) Beginning” value [6, 10] was 30.32 ± 4.42 g. For the same compound, the “Body weight(g) Ending” value [6, 10] was 31.13 ± 3.55 g, the “Number of mice alive” value [6, 11] was 7 and the “Tumor growth inhibition (%)” value [6, 11] was 89.76%. For the same compound, the “Tumor weight” value [6, 11] was 0.06 ± 0.11 g, the “Body weight(g) Beginning” value [6, 11] was 27.98 ± 3.73 g and the “Body weight(g) Ending” value [6, 11] was 27.49 ± 4.94 g.
